From the NIST ThermoML archive (doi:10.1021/je060271a)
Numbers after ± are expanded uncertainties.

Settings: Liquid, Vibrating tube method

CCCCCCC(=O)OCC(COC(=O)CCCCCC)(COC(=O)CCCCCC)COC(=O)CCCCCC [pentaerythritol tetraheptanoate]
Settings | mass density [kg/m3]
343.16 K, 13701 kPa | 950.5 ± 1.2
343.16 K, 13714 kPa | 950.6 ± 1.2
343.16 K, 13726 kPa | 950.6 ± 1.2
343.16 K, 13738 kPa | 950.7 ± 1.2
343.16 K, 13753 kPa | 950.7 ± 1.2
343.16 K, 13764 kPa | 950.6 ± 1.2
343.16 K, 13779 kPa | 950.7 ± 1.2
343.16 K, 13792 kPa | 950.7 ± 1.2
343.16 K, 13806 kPa | 950.8 ± 1.2
343.16 K, 13818 kPa | 950.6 ± 1.2
343.16 K, 14528 kPa | 951.2 ± 1.2
343.16 K, 14542 kPa | 951.2 ± 1.2
343.16 K, 16080 kPa | 952.4 ± 1.2
343.16 K, 16100 kPa | 952.3 ± 1.2
343.16 K, 16118 kPa | 952.2 ± 1.2
343.16 K, 32564 kPa | 962.8 ± 1.2
343.16 K, 32603 kPa | 963 ± 1.2
343.16 K, 32650 kPa | 963.1 ± 1.2
343.16 K, 32688 kPa | 963 ± 1.2
343.17 K, 14556 kPa | 951.3 ± 1.2
343.17 K, 14573 kPa | 951.2 ± 1.2
343.17 K, 14631 kPa | 951.4 ± 1.2
343.17 K, 14645 kPa | 951.3 ± 1.2
343.17 K, 14662 kPa | 951.3 ± 1.2
343.17 K, 14676 kPa | 951.3 ± 1.2
343.17 K, 14690 kPa | 951.3 ± 1.2
343.17 K, 14707 kPa | 951.4 ± 1.2
343.17 K, 14721 kPa | 951.4 ± 1.2
343.17 K, 14735 kPa | 951.3 ± 1.2
343.17 K, 14750 kPa | 951.3 ± 1.2
343.17 K, 14767 kPa | 951.3 ± 1.2
343.17 K, 14782 kPa | 951.4 ± 1.2
343.17 K, 14796 kPa | 951.5 ± 1.2
343.17 K, 14814 kPa | 951.5 ± 1.2
343.17 K, 14828 kPa | 951.3 ± 1.2
343.17 K, 14843 kPa | 951.4 ± 1.2
343.17 K, 14858 kPa | 951.4 ± 1.2
343.17 K, 14873 kPa | 951.5 ± 1.2
343.17 K, 14890 kPa | 951.5 ± 1.2
343.17 K, 14902 kPa | 951.5 ± 1.2
343.17 K, 14922 kPa | 951.4 ± 1.2
343.17 K, 14937 kPa | 951.4 ± 1.2
343.17 K, 14952 kPa | 951.5 ± 1.2
343.17 K, 14966 kPa | 951.6 ± 1.2
343.17 K, 14984 kPa | 951.7 ± 1.2
343.17 K, 14999 kPa | 951.6 ± 1.2
343.17 K, 15013 kPa | 951.5 ± 1.2
343.17 K, 15032 kPa | 951.7 ± 1.2
343.17 K, 15048 kPa | 951.5 ± 1.2
343.17 K, 15063 kPa | 951.4 ± 1.2
343.17 K, 15077 kPa | 951.6 ± 1.2
343.17 K, 15092 kPa | 951.6 ± 1.2
343.17 K, 15110 kPa | 951.6 ± 1.2
343.17 K, 15125 kPa | 951.6 ± 1.2
343.17 K, 15140 kPa | 951.7 ± 1.2
343.17 K, 15158 kPa | 951.6 ± 1.2
343.17 K, 15173 kPa | 951.7 ± 1.2
343.17 K, 15191 kPa | 951.6 ± 1.2
343.17 K, 15206 kPa | 951.6 ± 1.2
343.17 K, 15221 kPa | 951.7 ± 1.2
343.17 K, 15240 kPa | 951.7 ± 1.2
343.17 K, 15255 kPa | 951.6 ± 1.2
343.17 K, 15270 kPa | 951.8 ± 1.2
343.17 K, 15286 kPa | 951.7 ± 1.2
343.17 K, 15305 kPa | 951.7 ± 1.2
343.17 K, 15320 kPa | 951.9 ± 1.2
343.17 K, 15338 kPa | 951.6 ± 1.2
343.17 K, 15354 kPa | 951.8 ± 1.2
343.17 K, 15369 kPa | 951.6 ± 1.2
343.17 K, 15387 kPa | 951.9 ± 1.2
343.17 K, 15403 kPa | 951.8 ± 1.2
343.17 K, 15419 kPa | 952 ± 1.2
343.17 K, 15437 kPa | 951.8 ± 1.2
343.17 K, 15453 kPa | 951.8 ± 1.2
343.17 K, 15469 kPa | 951.8 ± 1.2
343.17 K, 15488 kPa | 951.9 ± 1.2
343.17 K, 15504 kPa | 951.9 ± 1.2
343.17 K, 15520 kPa | 951.9 ± 1.2
343.17 K, 15536 kPa | 951.9 ± 1.2
343.17 K, 15555 kPa | 951.9 ± 1.2
343.17 K, 15571 kPa | 952 ± 1.2
343.17 K, 15587 kPa | 951.9 ± 1.2
343.17 K, 15606 kPa | 951.8 ± 1.2
343.17 K, 15622 kPa | 952 ± 1.2
343.17 K, 15638 kPa | 952.1 ± 1.2
343.17 K, 15655 kPa | 952.1 ± 1.2
343.17 K, 15674 kPa | 952.1 ± 1.2
343.17 K, 15691 kPa | 952 ± 1.2
343.17 K, 15707 kPa | 952 ± 1.2
343.17 K, 15724 kPa | 952.2 ± 1.2
343.17 K, 15743 kPa | 952 ± 1.2
343.17 K, 15759 kPa | 952.1 ± 1.2
343.17 K, 15778 kPa | 952 ± 1.2
343.17 K, 15795 kPa | 952.1 ± 1.2
343.17 K, 15812 kPa | 952.2 ± 1.2
343.17 K, 15831 kPa | 952.1 ± 1.2
343.17 K, 15848 kPa | 952.2 ± 1.2
343.17 K, 15865 kPa | 952.2 ± 1.2
343.17 K, 15884 kPa | 952.1 ± 1.2
343.17 K, 15901 kPa | 952.2 ± 1.2
343.17 K, 15918 kPa | 952.3 ± 1.2
343.17 K, 15938 kPa | 952.3 ± 1.2
343.17 K, 15955 kPa | 952.2 ± 1.2
343.17 K, 15972 kPa | 952.2 ± 1.2
343.17 K, 15989 kPa | 952.3 ± 1.2
343.17 K, 16009 kPa | 952.3 ± 1.2
343.17 K, 16025 kPa | 952.2 ± 1.2
343.17 K, 16042 kPa | 952.3 ± 1.2
343.17 K, 16062 kPa | 952.2 ± 1.2
343.18 K, 14586 kPa | 951.4 ± 1.2
343.18 K, 14600 kPa | 951.2 ± 1.2
343.18 K, 14617 kPa | 951.3 ± 1.2
